Data published in the supplement of paper PMC10307832.

Tests used:
Assay in all cases: relative viability (nuclei count vs DMSO), 5 days (fraction); higher = more cells survive
[1] = compound: C[C@]1(O)C[C@@H](c2nc(-c3ccc4ccc(-c5ccccc5)nc4c3)c3c(N)nccn32)C1 [Linsitinib] + CC(=O)Nc1cccc(-n2c(=O)n(C3CC3)c(=O)c3c(Nc4ccc(I)cc4F)n(C)c(=O)c(C)c32)c1 [Trametinib] (partner 0.02 µM)
Summary of the method: (§1)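 After 5 days of treatment, lung cancer cells in 1536-well plates were fixed and stained in a single step (final 0.05% Triton X-100, 1% formaldehyde, 1 ug/ml Hoechst) and their nuclei counted on 4× images. Treatment had been applied by pin tool the day after seeding as one drug alone or as a fixed anchor-drug dose with five library-drug doses (not always all listed) in √10 steps. Relative viability is the nuclei count of treated wells divided by that of vehicle wells, and values are medians of duplicate plates.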

[2] = compound: C[C@]1(O)C[C@@H](c2nc(-c3ccc4ccc(-c5ccccc5)nc4c3)c3c(N)nccn32)C1 [Linsitinib] + CC(=O)c1c(C)c2cnc(Nc3ccc(N4CCNCC4)cn3)nc2n(C2CCCC2)c1=O [Palbociclib] (partner 0.5 µM)
Summary of the method: as §1

[3] = compound: C[C@]1(O)C[C@@H](c2nc(-c3ccc4ccc(-c5ccccc5)nc4c3)c3c(N)nccn32)C1 [Linsitinib] + Nc1nc2[nH]cc(CCc3ccc(C(=O)N[C@@H](CCC(=O)O)C(=O)O)cc3)c2c(=O)[nH]1 [Pemetrexed] (partner 0.2 µM)
Summary of the method: as §1

[4] = compound: Cc1ccc(C(=O)N(CCCN)[C@@H](c2nc3cc(Cl)ccc3c(=O)n2Cc2ccccc2)C(C)C)cc1 [Ispinesib] + CCNC(=O)c1noc(-c2cc(C(C)C)c(O)cc2O)c1-c1ccc(CN2CCOCC2)cc1 [Luminespib] (partner 0.01 µM)
Summary of the method: as §1

Cell Line | relative viability ([1]; first compound 0.01 µM) | relative viability ([1]; first compound 0.03162 µM) | relative viability ([1]; first compound 0.1 µM) | relative viability ([1]; first compound 0.3162 µM) | relative viability ([1]; first compound 1 µM) | relative viability ([2]; first compound 0.01 µM) | relative viability ([2]; first compound 0.03162 µM) | relative viability ([2]; first compound 0.1 µM) | relative viability ([2]; first compound 0.3162 µM) | relative viability ([2]; first compound 1 µM) | relative viability ([3]; first compound 0.01 µM) | relative viability ([3]; first compound 0.03162 µM) | relative viability ([3]; first compound 0.1 µM) | relative viability ([3]; first compound 0.3162 µM) | relative viability ([3]; first compound 1 µM) | relative viability ([4]; first compound 0.001 µM) | relative viability ([4]; first compound 0.003162 µM) | relative viability ([4]; first compound 0.01 µM) | relative viability ([4]; first compound 0.03162 µM) | relative viability ([4]; first compound 0.1 µM)
NCI-H838 | 0.464 | 0.498 | 0.435 | 0.333 | 0.369 | 0.23 | 0.207 | 0.17 | 0.19 | 0.162 | 0.252 | 0.209 | 0.256 | 0.214 | 0.212 | 0.302 | 0.325 | 0.278 | 0.322 | 0.268
NCI-H1755 | 0.731 | 0.783 | 0.76 | 0.715 | 0.721 | 0.475 | 0.48 | 0.467 | 0.345 | 0.444 | 0.388 | 0.401 | 0.653 | 0.234 | 0.398 | 0.292 | 0.641 | 0.423 | 0.315 | 0.441
HCC-15 | 0.376 | 0.376 | 0.286 | 0.264 | 0.287 | 0.75 | 0.703 | 0.702 | 0.283 | 0.569 | 0.215 | 0.199 | 0.209 | 0.191 | 0.213 | 0.286 | 0.322 | 0.459 | 0.229 | 0.227
NCI-H2087 | 0.197 | 0.204 | 0.183 | 0.15 | 0.191 | 0.205 | 0.268 | 0.15 | 0.175 | 0.299 | 0.559 | 0.591 | 0.571 | 0.555 | 0.646 | 0.168 | 0.159 | 0.189 | 0.14 | 0.151
LCLC-103H | 0.658 | 0.56 | 0.688 | 0.632 | 0.647 | 0.435 | 0.414 | 0.427 | 0.367 | 0.486 | 0.441 | 0.459 | 0.46 | 0.341 | 0.505 | 0.95 | 1.08 | 1.08 | 0.752 | 0.785
NCI-H1650 | 0.592 | 0.524 | 0.537 | 0.464 | 0.349 | 0.399 | 0.299 | 0.305 | 0.246 | 0.253 | 0.301 | 0.279 | 0.379 | 0.334 | 0.308 | 0.182 | 0.185 | 0.217 | 0.181 | 0.198
LK-2 | 0.892 | 0.626 | 0.599 | 0.39 | 0.643 | 0.968 | 0.58 | 0.615 | 0.371 | 0.554 | 0.123 | 0.285 | 0.148 | 0.215 | 0.153 | 0.186 | 0.174 | 0.226 | 0.224 | 0.202
NCI-H2342 | 0.788 | 0.886 | 0.791 | 0.777 | 0.729 | 0.677 | 0.524 | 0.521 | 0.531 | 0.54 | 0.731 | 0.746 | 0.732 | 0.82 | 0.704 | 0.746 | 0.768 | 0.698 | 0.703 | 0.592
ChaGo-K-1 | 0.947 | 0.973 | 0.892 |  | 0.961 | 0.926 | 0.897 | 0.974 |  | 0.978 | 0.263 | 0.243 | 0.271 |  | 0.261 | 0.727 | 0.712 | 0.82 | 0.639 | 0.492
NCI-H1666 | 0.8 | 0.907 | 0.904 | 0.644 | 0.594 | 0.626 | 0.565 | 0.656 | 0.526 | 0.604 | 0.823 | 0.625 | 0.83 | 0.722 | 0.741 | 1 | 0.973 | 0.946 | 0.887 | 0.501
EKVX |  | 0.321 | 0.436 | 0.234 | 0.294 |  | 0.408 | 0.39 | 0.288 | 0.316 |  | 0.243 | 0.425 | 0.352 | 0.36 | 0.837 | 0.875 | 0.937 | 0.829 | 0.563
COR-L 105 | 0.427 | 0.448 | 0.441 | 0.412 | 0.389 | 0.38 | 0.403 | 0.437 | 0.373 | 0.358 | 0.963 | 1.1 | 1.23 | 0.771 | 0.984 | 0.737 | 0.666 | 0.808 | 0.349 | 0.439
NCI-H322M | 0.513 | 0.548 | 0.571 | 0.531 | 0.473 | 0.475 | 0.521 | 0.492 | 0.478 | 0.463 | 0.612 | 0.605 | 0.582 | 0.59 | 0.523 | 0.992 | 0.888 | 0.729 | 0.612 | 0.58
HARA | 0.448 | 0.809 | 0.878 |  | 0.623 | 0.276 | 0.274 | 0.223 | 0.203 | 0.268 | 0.258 | 0.198 | 0.22 |  | 0.239 | 1.12 | 0.617 | 0.788 | 0.64 | 0.233
NCI-H2023 | 0.487 | 0.6 | 0.479 | 0.206 | 0.293 | 0.4 | 0.245 | 0.37 | 0.256 | 0.26 | 0.257 | 0.134 | 0.238 | 0.0952 | 0.176 | 0.793 | 0.628 | 1.07 | 0.29 | 0.179
NCI-H1437 | 0.518 | 0.518 | 0.519 | 0.34 | 0.352 | 0.291 | 0.33 | 0.321 | 0.276 | 0.346 | 0.317 | 0.247 | 0.307 | 0.288 | 0.275 | 1.16 | 1.22 | 1.26 | 1.22 | 0.994
